Test results reported in patent US20210323977A1, “PYRROLIDINYL AMIDE COMPOUNDS FOR THE TREATMENT OF AUTOIMMUNE DISEASE” (Hoffmann-La Roche Inc., priority 2018, published 2021).

Target: T1, human TLR7 (Homo sapiens, UniProt Q9NYK1)
T1 sequence (Q9NYK1 27-1049): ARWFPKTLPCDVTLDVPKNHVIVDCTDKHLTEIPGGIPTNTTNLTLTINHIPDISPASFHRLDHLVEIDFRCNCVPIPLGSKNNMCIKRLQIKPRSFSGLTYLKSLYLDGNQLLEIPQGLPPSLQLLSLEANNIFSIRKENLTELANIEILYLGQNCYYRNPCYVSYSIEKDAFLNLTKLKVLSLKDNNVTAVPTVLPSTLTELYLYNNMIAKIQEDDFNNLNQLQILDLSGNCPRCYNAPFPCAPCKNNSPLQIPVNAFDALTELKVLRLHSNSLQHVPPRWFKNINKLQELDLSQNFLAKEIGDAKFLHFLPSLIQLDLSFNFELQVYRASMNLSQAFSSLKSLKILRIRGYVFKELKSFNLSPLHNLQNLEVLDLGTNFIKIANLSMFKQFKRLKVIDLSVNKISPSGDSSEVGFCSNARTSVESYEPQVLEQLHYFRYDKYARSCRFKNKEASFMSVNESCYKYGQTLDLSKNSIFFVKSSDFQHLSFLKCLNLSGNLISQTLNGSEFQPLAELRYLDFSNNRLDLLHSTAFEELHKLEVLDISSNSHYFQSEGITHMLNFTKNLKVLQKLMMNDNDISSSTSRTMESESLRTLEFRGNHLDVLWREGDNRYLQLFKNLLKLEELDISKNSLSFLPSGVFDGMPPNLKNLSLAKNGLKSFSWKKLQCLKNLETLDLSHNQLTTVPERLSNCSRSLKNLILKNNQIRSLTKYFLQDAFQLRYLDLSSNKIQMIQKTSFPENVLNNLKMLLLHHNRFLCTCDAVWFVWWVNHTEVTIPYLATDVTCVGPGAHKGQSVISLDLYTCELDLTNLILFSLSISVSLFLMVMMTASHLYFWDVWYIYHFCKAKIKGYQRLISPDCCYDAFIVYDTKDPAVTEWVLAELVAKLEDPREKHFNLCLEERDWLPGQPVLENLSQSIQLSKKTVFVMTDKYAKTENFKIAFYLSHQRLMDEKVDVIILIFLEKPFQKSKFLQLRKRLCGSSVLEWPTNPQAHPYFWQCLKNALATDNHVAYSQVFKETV
Experiment: HEK293-Blue-hTLR-7 cells assay
Type: cell-based
Conditions: HEK293-Blue-hTLR7 cells, SEAP reporter, R848 stimulation, 20 hrs
From the text: HEK293-Blue-hTLR-7 Cells Assay:
A stable HEK293-Blue-hTLR-7 cell line was purchased from InvivoGen (Cat. #: hkb-htlr7, San Diego, Calif., USA). These cells were originally designed for studying the stimulation of human TLR7 by monitoring the activation of NF-κB. A SEAP (secreted embryonic alkaline phosphatase) reporter gene was placed under the control of the IFN-β minimal promoter fused to five NF-κB and AP-1-binding sites. The SEAP was induced by activating NF-κB and AP-1 via stimulating HEK-Blue hTLR7 cells with TLR7 ligands. Therefore the reporter expression was declined by TLR7 antagonist under the stimulation of a ligand, such as R848 (Resiquimod), for incubation of 20 hrs. The cell culture supernatant SEAP reporter activity was determined using QUANTI-Blue™ kit (Cat. #: rep-qb1, Invivogen, San Diego, Ca, USA) at a wavelength of 640 nm, a detection medium that turns purple or blue in the presence of alkaline phosphatase.
HEK293-Blue-hTLR7 cells were incubated at a density of 250,000˜450,000 cells/mL in a volume of 170 μL in a 96-well plate in Dulbecco's Modified Eagle's medium (DMEM) containing 4.5 g/L glucose, 50 U/mL penicillin, […], […], 2 mM L-glutamine, 10% (v/v) heat-inactivated fetal bovine serum with addition of 20 sL test compound in a serial dilution in the presence of final DMSO at 1% and 10 μL of 20 uM R848 in above DMEM, perform incubation under 37° C. in a CO2 incubator for 20 hrs. Then 20 μL of the supernatant from each well was incubated with 180 sL Quanti-blue substrate solution at 37° C. for 2 hrs and the absorbance was read at 620-655 nm using a spectrophotometer. The signalling pathway that TLR7 activation leads to downstream NF-κB activation has been widely accepted, and therefore similar reporter assay was modified for evaluating TLR7 antagonist.

**Q.** N#Cc1ccc(N2CC(C(=O)NC[C@@H]3CNCCO3)C3(CC3)C2)c2nccnc12 (single isomer, unassigned) [Example 71A] was tested. Which IC50 did it give?
**A.** 21 nM

**Q.** With C[C@H]1CN(c2ccc(C#N)c3ncccc23)C[C@@H]1C(=O)NC1CCN(C)CC1 [Example 16, (3R,4R)-1-(8-cyano-5-quinolyl)-4-methyl-N-(1-methyl-4-piperidyl)pyrrolidine-3-carboxamide] as the compound, how does the IC50 read?
**A.** 22 nM

**Q.** Which IC50 does the source give for N#Cc1ccc(N2C[C@@H](C(F)(F)F)[C@H](C(=O)N[C@H]3CNC[C@H]3F)C2)c2cccnc12 [Example 47, Trans-1-(8-cyano-5-quinolyl)-N-[(3S,4R)-4-fluoropyrrolidin-3-yl]-4-(trifluoromethyl)pyrrolidine-3-carboxamide] here?
**A.** 124 nM

**Q.** With CN(C)CC1CC(NC(=O)C2CN(c3ccc(C(F)(F)F)c4nccnc34)CC23CC3)C1 (centres unmarked) [Example 26, N-[3-[(dimethylamino)methyl]cyclobutyl]-5-[8-(trifluoromethyl)quinoxalin-5-yl]-5-azaspiro[2.4]heptane-7-carboxamide] as the compound, how does the IC50 read?
**A.** 36 nM

**Q.** For CN1CCC(NC(=O)[C@H]2CN(c3ccc(C#N)c4nccnc34)C[C@@H]2C(F)(F)F)CC1 [Example 1, (3R,4R)-1-(8-cyanoquinoxalin-5-yl)-N-(1-methyl-4-piperidyl)-4-(trifluoromethyl) pyrrolidine-3-carboxamide], which IC50 is on record?
**A.** 3 nM

**Q.** Which IC50 does the source give for N#Cc1ccc(N2C[C@H](C(=O)NC3CCN(C4CCNCC4)CC3)[C@@H](C(F)(F)F)C2)c2nccnc12 [Example 35, (3R,4R)-1-(8-Cyanoquinoxalin-5-yl)-N-[1-(4-piperidyl)-4-piperidyl]-4-(trifluoromethyl)pyrrolidine-3-carboxamide] here?
**A.** 55 nM

**Q.** Which IC50 does the source give for CN1CCCC(CNC(=O)C2CN(c3ccc(C#N)c4ncccc34)CC23CC3)C1 (centres unmarked) [Example 51, 5-(8-Cyano-5-quinolyl)-N-[(1-methyl-3-piperidyl)methyl]-5-azaspiro[2.4]heptane-7-carboxamide] here?
**A.** 201 nM

**Q.** How did the IC50 turn out when CN1CCC(NC(=O)[C@@H]2CN(c3ccc(C#N)c4ncccc34)C[C@H]2C2CC2)CC1 (relative stereo) [Example 14, Trans-1-(8-cyano-5-quinolyl)-4-cyclopropyl-N-(1-methyl-4-piperidyl)pyrrolidine-3-carboxamide] was run?
**A.** 20 nM

**Q.** With CN1CCC(NC(=O)[C@H]2CN(c3ccc(C(F)(F)F)c4nccnc34)C[C@@H]2C(F)(F)F)CC1 [Example 2, (3R,4R)—N-(1-methyl-4-piperidyl)-4-(trifluoromethyl)-1-[8-(trifluoromethyl)quinoxalin-5-yl]pyrrolidine-3-carboxamide] as the compound, how does the IC50 read?
**A.** 4 nM

**Q.** Which IC50 does the source give for CN1CCC(NC(=O)[C@@H]2CN(c3ccc(C#N)c4ncccc34)C[C@H]2C(F)(F)F)CC1 (relative stereo) [Example 17, Trans-1-(8-cyano-5-quinolyl)-N-(1-methyl-4-piperidyl)-4-(trifluoromethyl)pyrrolidine-3-carboxamide] here?
**A.** 22 nM

**Q.** How did the IC50 turn out when C[C@@H]1CN(c2ccc(C#N)c3ncccc23)C[C@H]1C(=O)NC1CCN(C)CC1 (relative stereo) [Example 28] was run?
**A.** 39 nM

**Q.** How did the IC50 turn out when O=C(NC1C2CCC1CNC2)C1CN(c2ccc(C(F)(F)F)c3nccnc23)CC12CC2 (centres unmarked) [Example 12, N-(3-azabicyclo[3.2.1]octan-8-yl)-5-[8-(trifluoromethyl)quinoxalin-5-yl]-5-azaspiro[2.4]heptane-7-carboxamide] was run?
**A.** 18 nM

**Q.** C[C@H]1CN(c2ccc(C#N)c3nccnc23)C[C@@H]1C(=O)NC1CCN(C2CCNCC2)CC1 [Example 60, (3R,4R)-1-(8-cyanoquinoxalin-5-yl)-4-methyl-N-[1-(4-piperidyl)-4-piperidyl]pyrrolidine-3-carboxamide] was tested. Which IC50 did it give?
**A.** 492 nM

**Q.** Which IC50 does the source give for C[C@H]1CN(c2ccc(C#N)c3nccnc23)C[C@@H]1C(=O)NC1CCN(C)CC1 [Example 3, (3R,4R)-1-(8-cyanoquinoxalin-5-yl)-4-methyl-N-(1-methyl-4-piperidyl)pyrrolidine-3-carboxamide] here?
**A.** 4 nM

**Q.** How did the IC50 turn out when C[C@H]1CN(c2ccc(C#N)n3nccc23)C[C@@H]1C(=O)NC1CCN(C)CC1 [Example 44, (3R,4R)-1-(7-cyanopyrazolo[1,5-a]pyridin-4-yl)-4-methyl-N-(1-methyl-4 piperidyl)pyrrolidine-3-carboxamide] was run?
**A.** 84 nM

**Q.** CN1CCC(NC(=O)C2CN(c3ccc(C#N)c4nccnc34)CC23CC3)CC1 (single isomer, unassigned) [Example 7B, 5-(8-Cyanoquinoxalin-5-yl)-N-(1-methyl-4-piperidyl)-5-azaspiro[2.4]heptane-7-carboxamide] was tested. Which IC50 did it give?
**A.** 6 nM

**Q.** For NC1CC(NC(=O)C2CN(c3ccc(C(F)(F)F)c4nccnc34)CC23CC3)C1 (centres unmarked) [Example 38, N-(3-Aminocyclobutyl)-5-[8-(trifluoromethyl)quinoxalin-5-yl]-5-azaspiro[2.4]heptane-7-carboxamide], which IC50 is on record?
**A.** 59 nM

**Q.** C[C@@H]1CN(c2ccc(C#N)c3ncccc23)C[C@H]1C(=O)NC1CCCNCC1 (single isomer, unassigned) [Example 52A, Trans-N-(azepan-4-yl)-1-(8-cyano-5-quinolyl)-4-methyl-pyrrolidine-3-carboxamide] was tested. Which IC50 did it give?
**A.** 203 nM

**Q.** Which IC50 does the source give for O=C(NC1CC2CNCC2C1)C1CN(c2ccc(C(F)(F)F)c3nccnc23)CC12CC2 (centres unmarked) [Example 21, N-(1,2,3,3a,4,5,6,6a-octahydrocyclopenta[c]pyrrol-5-yl)-5-[8-(trifluoromethyl)quinoxalin-5-yl]-5-azaspiro[2.4]heptane-7-carboxamide] here?
**A.** 28 nM

**Q.** For C[C@H]1CN(c2ccc([N+](=O)[O-])c3ncccc23)C[C@@H]1C(=O)NC1CCN(C)CC1 [Example 27, (3R,4R)-4-Methyl-N-(1-methyl-4-piperidyl)-1-(8-nitro-5-quinolyl)pyrrolidine-3-carboxamide], which IC50 is on record?
**A.** 38 nM

**Q.** NC1CC2(C1)CC(NC(=O)C1CN(c3ccc(C(F)(F)F)c4nccnc34)CC13CC3)C2 (centres unmarked) [Example 22, N-(6-aminospiro[3.3]heptan-2-yl)-5-[8-(trifluoromethyl)quinoxalin-5-yl]-5-azaspiro[2.4]heptane-7-carboxamide] was tested. Which IC50 did it give?
**A.** 28 nM

**Q.** With O=C(NC1CC2CCC(C1)N2)C1CN(c2ccc(C(F)(F)F)c3nccnc23)CC12CC2 (centres unmarked) [Example 23, N-(8-azabicyclo[3.2.1]octan-3-yl)-5-[8-(trifluoromethyl)quinoxalin-5-yl]-5-azaspiro[2.4]heptane-7-carboxamide] as the compound, how does the IC50 read?
**A.** 28 nM

**Q.** For N#Cc1ccc(N2CC(C(=O)NC[C@@H]3CNCCO3)C3(CC3)C2)c2nccnc12 (single isomer, unassigned) [Example 71B], which IC50 is on record?
**A.** 202 nM

**Q.** How did the IC50 turn out when CC[C@@H]1CN(c2ccc(C#N)c3ncccc23)C[C@H]1C(=O)NC1CCN(C)CC1 (relative stereo) [Example 29, Trans-1-(8-cyano-5-quinolyl)-4-ethyl-N-(1-methyl-4-piperidyl)pyrrolidine-3-carboxamide] was run?
**A.** 40 nM

**Q.** With C[C@@H]1CN(c2ccc(C#N)c3ncccc23)C[C@H]1C(=O)NC1CCCNCC1 (single isomer, unassigned) [Example 52B, Trans-N-(azepan-4-yl)-1-(8-cyano-5-quinolyl)-4-methyl-pyrrolidine-3-carboxamide] as the compound, how does the IC50 read?
**A.** 219 nM

**Q.** For O=C(NC1C2CCCC1CNC2)C1CN(c2ccc(C(F)(F)F)c3nccnc23)CC12CC2 (centres unmarked) [Example 8, N-(3-azabicyclo[3.3.1]nonan-9-yl)-5-[8-(trifluoromethyl)quinoxalin-5-yl]-5-azaspiro[2.4]heptane-7-carboxamide], which IC50 is on record?
**A.** 10 nM
